We go through two compounds from ChEMBL document CHEMBL5325410, “Ras superfamily GTPase activating proteins in cancer: Potential therapeutic targets?” (Eur J Med Chem, 2023).

The target of assay [1] is T1, ADP-ribosylation factor GTPase-activating protein 1 (Homo sapiens, UniProt Q8N6T3). Briefly: Inhibition of ARFGAP1 (unknown origin) at 10 uM relative to control.
In a further assay the test system is MDA-MB-231. Kind of assay: Inhibition of cell migration in human MDA-MB-231 cells at 2.5 uM measured after 12 hrs by transwell migration assay. The format is functional.
The target of assay [2] is T1, ADP-ribosylation factor GTPase-activating protein 1. Kind of assay: Inhibition of ARFGAP1 (unknown origin).

T1 sequence (Q8N6T3 whole entry): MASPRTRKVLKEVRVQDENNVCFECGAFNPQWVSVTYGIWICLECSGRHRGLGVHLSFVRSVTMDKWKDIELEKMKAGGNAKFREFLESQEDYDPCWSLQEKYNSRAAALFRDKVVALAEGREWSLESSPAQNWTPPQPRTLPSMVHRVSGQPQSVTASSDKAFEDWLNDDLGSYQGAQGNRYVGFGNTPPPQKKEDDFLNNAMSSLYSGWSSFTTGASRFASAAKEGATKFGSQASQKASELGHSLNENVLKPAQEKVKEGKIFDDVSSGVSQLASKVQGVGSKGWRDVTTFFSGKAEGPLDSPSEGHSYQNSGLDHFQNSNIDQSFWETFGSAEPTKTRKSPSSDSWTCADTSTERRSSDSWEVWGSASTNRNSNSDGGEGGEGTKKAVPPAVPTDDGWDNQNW

The inhibition is the percentage by which the read-out fell short of the control. Lower therefore signals a response near the control. Take `FC(F)(F)c1cccc(Oc2nc(NCCc3cccc4ccccc34)c3ncn(Cc4ccc(-c5ccccc5)cc4)c3n2)c1`: the inhibition in assay [1] was 67%.

Usually EC50 stands for the concentration giving half of the maximal effect. A low value points to a more potent agent. In the case of `OC[C@H](Cc1ccccc1)Nc1nc(Oc2ccc3c(c2)CCC3)nc2c1ncn2Cc1ccc(-c2ccccc2)cc1`, the inhibition in assay [1] stood at 84%. Besides, the inhibition at 2.5 µM in the assay with MDA-MB-231 stood at 80%. In assay [2], this compound registered a concentration for a half-maximal effect (EC50) of 500 nM.
